From PubChem BioAssay (NCI)
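Dose response: 5 concentrations. Exposure: 48 h. Format: 96-well plates. Endpoint: linear interpolation; highest concentration if not reached. At the TGI there is no net growth.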

What was measured:
Assay in all cases: DTP human tumour cell line panel, 48 h
[1] = system: RPMI-8226 leukemia
[2] = system: KM12 colon
[3] = system: EKVX NSCLC
[4] = system: HCT-15 colon
[5] = system: UO-31 renal
[6] = system: MALME-3M melanoma
[7] = system: RXF 393 renal
[8] = system: SW-620 colon
[9] = system: MCF7 breast
[10] = system: MDA-MB-435
[11] = system: MDA-N
[12] = system: ACHN renal
[13] = system: DU-145 prostate
[14] = system: MDA-MB-231 breast
[15] = system: NCI-H522 lung
[16] = system: HCT-116 colon
[17] = system: SK-MEL-28 melanoma
[18] = system: HS 578T breast
[19] = system: TK-10 renal
[20] = system: HT29 colon
[21] = system: OVCAR-4 ovarian
[22] = system: OVCAR-3 ovarian
[23] = system: COLO 205 colon
[24] = system: NCI-H460 lung
[25] = system: SN12C renal
[26] = system: PC-3 prostate
[27] = system: A549 NSCLC
[28] = system: HCC-2998 colon
[29] = system: CAKI-1 renal
[30] = system: SK-MEL-5 melanoma
[31] = system: CCRF-CEM leukemia
[32] = system: BT-549 breast
[33] = system: T-47D breast
[34] = system: IGROV1 ovarian
[35] = system: SR leukemia
[36] = system: HOP-92 NSCLC
[37] = system: SF-268 CNS
[38] = system: LOX IMVI melanoma
[39] = system: UACC-62 melanoma
[40] = system: U251 CNS
[41] = system: OVCAR-5 ovarian
[42] = system: UACC-257 melanoma
[43] = system: NCI-H23 lung
[44] = system: A498 renal
[45] = system: MOLT-4 leukemia
[46] = system: SF-539 CNS
[47] = system: OVCAR-8 ovarian
[48] = system: SNB-75 CNS
[49] = system: M14 melanoma
[50] = system: HL-60(TB) leukemia
[51] = system: HOP-62 NSCLC
[52] = system: 786-0 renal
[53] = system: SNB-19 CNS
[54] = system: NCI/ADR-RES ovarian
[55] = system: K-562 leukemia
[56] = system: SF-295 CNS
[57] = system: SK-MEL-2 melanoma
[58] = system: SK-OV-3 ovarian
[59] = system: NCI-H226 lung

CCS(=O)(=O)CCn1c(=O)c2c(ncn2C)n(C)c1=O
TGI [1]: > 100 µM | TGI [2]: > 100 µM | TGI [3]: > 100 µM | TGI [4]: > 100 µM | TGI [5]: > 100 µM | TGI [6]: > 100 µM | TGI [7]: > 100 µM | TGI [8]: > 100 µM | TGI [9]: > 100 µM | TGI [10]: > 100 µM | TGI [11]: > 100 µM | TGI [12]: > 100 µM | TGI [13]: > 100 µM | TGI [14]: > 100 µM | TGI [15]: > 100 µM | TGI [16]: > 100 µM | TGI [17]: > 100 µM | TGI [18]: > 100 µM | TGI [19]: > 100 µM | TGI [20]: > 100 µM | TGI [21]: > 100 µM | TGI [22]: > 100 µM | TGI [23]: > 100 µM | TGI [24]: > 100 µM | TGI [25]: > 100 µM | TGI [26]: > 100 µM | TGI [27]: > 100 µM | TGI [28]: > 100 µM | TGI [29]: > 100 µM | TGI [30]: > 100 µM | TGI [31]: > 100 µM | TGI [32]: > 100 µM | TGI [33]: > 100 µM | TGI [34]: > 100 µM | TGI [35]: > 100 µM | TGI [36]: > 100 µM | TGI [37]: > 100 µM | TGI [38]: > 100 µM | TGI [39]: > 100 µM | TGI [40]: > 100 µM | TGI [41]: > 100 µM | TGI [42]: > 100 µM | TGI [43]: > 100 µM | TGI [44]: > 100 µM | TGI [45]: > 100 µM | TGI [46]: > 100 µM | TGI [47]: > 100 µM | TGI [48]: > 100 µM | TGI [49]: > 100 µM | TGI [50]: > 100 µM | TGI [51]: > 100 µM | TGI [52]: > 100 µM | TGI [53]: > 100 µM | TGI [54]: > 100 µM | TGI [55]: > 100 µM | TGI [56]: > 100 µM | TGI [57]: > 100 µM

CSC(=S)OC1CC(n2cnc3c(NC(=O)c4ccccc4)ncnc32)OC1CO[Si](C)(C)C(C)(C)C (stereo not given)
TGI [1]: 43 µM | TGI [2]: 41.6 µM | TGI [3]: > 56.2 µM | TGI [4]: > 56.2 µM | TGI [5]: 28 µM | TGI [6]: 51.9 µM | TGI [7]: > 65.8 µM | TGI [8]: > 56.2 µM | TGI [9]: 40.3 µM | TGI [10]: 27.9 µM | TGI [11]: 47.4 µM | TGI [12]: > 56.2 µM | TGI [13]: 42.6 µM | TGI [14]: > 46.4 µM | TGI [15]: > 56.2 µM | TGI [16]: > 100 µM | TGI [17]: > 46.4 µM | TGI [18]: > 56.2 µM | TGI [19]: > 56.2 µM | TGI [20]: > 56.2 µM | TGI [21]: > 56.2 µM | TGI [22]: 34.4 µM | TGI [23]: 18.1 µM | TGI [24]: > 56.2 µM | TGI [25]: 52.2 µM | TGI [26]: > 46.4 µM | TGI [27]: > 100 µM | TGI [28]: > 31.6 µM | TGI [29]: > 46.4 µM | TGI [58]: > 46.4 µM | TGI [30]: 18.3 µM | TGI [31]: > 51.7 µM | TGI [32]: > 100 µM | TGI [33]: > 56.2 µM | TGI [34]: 44.2 µM | TGI [35]: > 50 µM | TGI [36]: 44.4 µM | TGI [37]: > 56.2 µM | TGI [38]: 47.2 µM | TGI [39]: > 56.2 µM | TGI [40]: 44.4 µM | TGI [41]: > 56.2 µM | TGI [42]: > 56.2 µM | TGI [43]: > 56.2 µM | TGI [44]: > 31.6 µM | TGI [45]: 14.8 µM | TGI [59]: > 56.2 µM | TGI [46]: > 46.4 µM | TGI [47]: > 56.2 µM | TGI [48]: 52 µM | TGI [49]: > 56.2 µM | TGI [50]: 32.6 µM | TGI [51]: 46 µM | TGI [52]: > 56.2 µM | TGI [53]: > 56.2 µM | TGI [54]: > 56.2 µM | TGI [55]: > 49.5 µM | TGI [56]: > 56.2 µM | TGI [57]: 53.4 µM

C/C(=N\NC(=S)SCc1ccccc1)c1ccccn1
TGI [1]: 1.97 µM | TGI [2]: 16.1 µM | TGI [3]: < 0.01 µM | TGI [4]: 12.1 µM | TGI [5]: 14.2 µM | TGI [6]: 7.4 µM | TGI [7]: 3.03 µM | TGI [8]: 9.86 µM | TGI [9]: < 0.01 µM | TGI [10]: 18.3 µM | TGI [11]: 15.3 µM | TGI [12]: 1.95 µM | TGI [13]: 16.9 µM | TGI [14]: 4.08 µM | TGI [15]: 2.79 µM | TGI [16]: 5.96 µM | TGI [18]: 26.3 µM | TGI [19]: 13.5 µM | TGI [20]: 15.6 µM | TGI [21]: 1.52 µM | TGI [23]: 0.464 µM | TGI [24]: 10.6 µM | TGI [25]: 3.13 µM | TGI [26]: 15.2 µM | TGI [27]: 20.5 µM | TGI [28]: 23.8 µM | TGI [29]: 4.93 µM | TGI [30]: 5.56 µM | TGI [31]: < 0.01 µM | TGI [32]: 6.07 µM | TGI [33]: > 42.6 µM | TGI [34]: 30.2 µM | TGI [35]: 1.77 µM | TGI [36]: 2.14 µM | TGI [37]: 11.4 µM | TGI [38]: 9.56 µM | TGI [39]: 4.69 µM | TGI [40]: 13.3 µM | TGI [41]: 9.71 µM | TGI [42]: 1.42 µM | TGI [43]: 9.31 µM | TGI [44]: 8.73 µM | TGI [59]: 1.62 µM | TGI [46]: 2.49 µM | TGI [47]: 0.326 µM | TGI [48]: 13.7 µM | TGI [49]: 6.44 µM | TGI [50]: 1.04 µM | TGI [52]: 10.2 µM | TGI [53]: 18.3 µM | TGI [54]: < 0.0332 µM | TGI [55]: 2.95 µM | TGI [56]: 9.26 µM | TGI [57]: 11.6 µM
